Results reported in patent US20250186467A1, “METHODS OF TREATING MEDICAL CONDITIONS USING STAMPIDINE OR A RELATED COMPOUND” (ROME Therapeutics, Inc., priority 2022, published 2025).

Legend:
[1] = system: IFN-β; assay: Decitabine-stimulated human PBMC assay, IFN-β; assay type: cell-based; conditions: PBMCs with anti-CD3/anti-CD28 and 10 μM decitabine, 5 days
Description: EasySep buffer (32 mL, Stem Cell, cat. #20144) was used to dilute 8 mL of LRSC buffy coat (from fresh Leukopak) with gentle mixing. The diluted buffy coat (20 mL) was transferred into each of two SepMate 50 tubes, and the tubes were filled with 15 mL of Lyphoprep (Stem Cell, ct. #07851) density gradient. The SepMate tubes were then centrifuged at 1200G for 10 minutes at room temperature with the brake on. The top layer of supernatant was collected in SepMate tubes by quickly pouring it into a new 50 mL conical tube. The PBMCs were washed with EasySep buffer×2 by centrifuging at 300G for 5 minutes. The cells were resuspended in 30 mL of EasySep and centrifuged at 100G for 5 minutes with the brake off, and the platelets were removed. The cells were then resuspended in 6 mL of 1× RBC lysis buffer (InvitroGen) and incubated at 37° C. for 5 minutes. Then, 25 mL of EasySep buffer was mixed into the tube and it was centrifuged at 300G for 5 minutes. The cells were resuspended in 10 mL of EasySep buffer and the cells were then counted with Cellometer (AO/PI). The PBMCs were resuspended in RPMI1640 (ThermoFisher)+10% FBS (HyClone)+p/s at 3×10^6/mL. The PBMCs (100 μL, 300 k PBMCs) were then seeded in a 96-well flat bottom microplate (Corning) that had been precoated with 100 μL of anti-CD3 antibody (10 μg/mL in PBS, Biolegend) or PBS at 4° C., one day before the assay was commenced. […]

[2] = system: phosphorylated TANK-binding kinase 1 (pTBK1); assay: UVB-induced pTBK1 in HaCaT cells; assay type: cell-based; conditions: 96 hours of treatment before UVB, 24 hours post-UVB, ELISA
Description: HaCaT cells were plated in 6-well plates at a density of ˜100 k/well in HaCaT media (DMEM, optimized 1× (Addex Bio)+1% pen strep (Gibco)+5% heat inactivated fetal bovine serum (Gibco)). The cells were then cultured at 37° C. overnight. The next day, the cells were treated with the test compounds. Each test compound was diluted and added to media aliquots to provide desired concentrations. To add the test compound+media mixture, an equivalent amount of media from each well was aspirated and then replenished with the media dosed with the test compound. The cells were then cultured for an additional 96 hours with compound treatment prior to UVB exposure.
The media was then aspirated from the wells, with the remaining cells at least 80% confluent in each well. One mL of PBS was then added to each well, and the plate was then placed under a UVB lamp. A UVB sensor was positioned near the plate to register the plate's exposure. The cells were exposed to the UVB light until they reached 0.1 mJ/cm^2. Then the plate was covered and transferred to a sterile hood for processing. […]
A RIPA lysis buffer (#BP-115, Boston Bio-Products) was added to a Halt protease and […] inhibitor cocktail (#78440, ThermoFisher), and the mixture was cooled on ice. […] The protein concentration of the cell lysate was measured using Pierce™ Rapid Gold BCA Protein Assay Kit #AF3225 (ThermoFisher). […]

COC(=O)[C@H](C)N[P@](=O)(OC[C@@H]1C=C[C@H](n2cc(C)c(=O)[nH]c2=O)O1)Oc1ccc(Br)cc1 [Stampidine, methyl ((S)-(4-bromophenoxy)(((2S,5R)-5-(5-methyl-2,4-dioxo-3,4-dihydropyrimidin-1(2H)-yl)-2,5-dihydrofuran-2-yl)methoxy)phosphoryl)-L-alaninate]
inhibition of IFN-β [1]: showed inhibition of IFN-β
reduction of UVB-induced pTBK1 [2]: showed a reduction of UVB-induced phosphorylated TANK-binding kinase 1 (pTBK1)
